Experiment [1] has as its target T1, P2X7 (Homo sapiens (Human), UniProt Q99572). As to the kind of experiment: P2X7 antagonism in human peripheral blood mononuclear cells (PBMCs), IL-1β release (LPS + Bz-ATP, ELISA). Format: cell-based. The note with it: P2X7, 10 μM test compound, LPS 30 ng/ml + Bz-ATP 0.5 mM, read-out: PBMC @10 μM (% control). How it is done:
(§1) P2X7 Antagonism in Human Peripheral Blood Mononuclear Cells (PBMCs) and Human Whole Blood.
(§2) Human blood was collected using a blood donor program. PBMCs were isolated from blood using a Ficoll density gradient technique. Briefly, blood was laid on Ficoll solution and centrifuged at ROOM TEMPERATURE for 20 minutes at 2000 rpm. The buffy layer (between red blood cells and plasma) was carefully collected by aspiration, washed with PBS and centrifuged again at 1500 rpm for 15 minutes. The resulting cell pellet was washed and plated on 96 well-plates for experiments. For the Human Whole Blood experiments, 150 μl of human blood was plated on 96 well-plates. Lipopolysaccharide (LPS) (30 ng/ml) was added to each well and incubated for 1 hour. Test compounds were then added and incubated for 30 minutes. The P2X7 agonist, 2′(3′)-O-(4-benzoylbenzoyl) adenosine 5′-triphosphate (Bz-ATP) was then added at a final concentration of 0.5 mM (PBMC) or 1 mM (blood). Cells were incubated for an additional 1.5 hours. At that point, supernatant was collected and stored for IL-1β assay using manufacturer's protocol for enzyme-linked immunosorbant assay (ELISA). Data was expressed as percent control, where control is defined as the difference in IL-1β release in LPS+Bz-ATP samples and LPS only samples. Data was plotted as response (% control) versus concentration to generate IC50 values. […] Data are analyzed and graphed on Graphpad Prism 5. For analysis, each concentration point is averaged from triplicate values and the averaged values are plotted on Graphpad Prism. The IC50 for each compound is then uploaded into 3DX.

The target in another experiment is rat P2X7 (Rattus norvegicus (Rat), UniProt Q64663). As to the kind of experiment: P2X7 antagonism in recombinant rat P2X7 cells (column headed P2X7 Rat IC50). It counts as binding. How it is done:
The in vitro affinity of the compounds of the invention for the rat and human P2X7 receptor was determined using a human peripheral blood mononuclear cells (PBMCs), a human whole blood assay, a Ca^2+ flux and radioligand binding assay in recombinant human P2X7 cells and recombinant rat P2X7 cells. […] The data represented in Tables 2 may represent a value from a single determination or when the experiment was run more than once, the data represents the average from between 2-12 runs.
P2X7 Antagonism in Recombinant Human P2X7 Cells or Recombinant Rat P2X7 Cells: […]

For experiment [2], the target named is T1, P2X7. As to the kind of experiment: P2X7 antagonism in human whole blood, IL-1β release (LPS + Bz-ATP, ELISA). It counts as cell-based. As to conditions: LPS 30 ng/ml + Bz-ATP 1 mM. The protocol: as §1, §2
Where [3] appears, read: read-out: Human Whole Blood IC50.

Values joined by “and” are separate entries in the source; they are usually repeats but may differ in a detail not shown here. Identical values can stand only once. Like-named read-outs stand apart in the source and are kept apart here. Bounds are passed on as bounds.

rat P2X7, sequence (Q64663 whole entry): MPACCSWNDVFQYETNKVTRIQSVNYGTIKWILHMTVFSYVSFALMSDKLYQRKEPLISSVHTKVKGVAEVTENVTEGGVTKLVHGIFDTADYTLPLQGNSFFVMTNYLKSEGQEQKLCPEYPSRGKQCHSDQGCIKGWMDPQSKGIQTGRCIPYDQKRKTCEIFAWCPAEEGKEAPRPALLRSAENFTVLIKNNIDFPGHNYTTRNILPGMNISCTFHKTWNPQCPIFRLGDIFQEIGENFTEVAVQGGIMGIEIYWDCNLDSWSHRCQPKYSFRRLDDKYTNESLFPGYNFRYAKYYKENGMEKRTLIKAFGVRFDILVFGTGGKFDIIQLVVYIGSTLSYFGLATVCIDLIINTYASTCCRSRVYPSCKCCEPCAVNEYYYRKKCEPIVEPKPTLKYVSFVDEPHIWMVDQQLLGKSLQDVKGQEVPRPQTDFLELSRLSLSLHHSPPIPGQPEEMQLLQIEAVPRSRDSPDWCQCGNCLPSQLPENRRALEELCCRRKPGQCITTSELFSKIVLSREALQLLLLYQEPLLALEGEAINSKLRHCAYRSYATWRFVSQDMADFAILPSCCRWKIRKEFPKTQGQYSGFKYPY
T1 sequence (Q99572 whole entry): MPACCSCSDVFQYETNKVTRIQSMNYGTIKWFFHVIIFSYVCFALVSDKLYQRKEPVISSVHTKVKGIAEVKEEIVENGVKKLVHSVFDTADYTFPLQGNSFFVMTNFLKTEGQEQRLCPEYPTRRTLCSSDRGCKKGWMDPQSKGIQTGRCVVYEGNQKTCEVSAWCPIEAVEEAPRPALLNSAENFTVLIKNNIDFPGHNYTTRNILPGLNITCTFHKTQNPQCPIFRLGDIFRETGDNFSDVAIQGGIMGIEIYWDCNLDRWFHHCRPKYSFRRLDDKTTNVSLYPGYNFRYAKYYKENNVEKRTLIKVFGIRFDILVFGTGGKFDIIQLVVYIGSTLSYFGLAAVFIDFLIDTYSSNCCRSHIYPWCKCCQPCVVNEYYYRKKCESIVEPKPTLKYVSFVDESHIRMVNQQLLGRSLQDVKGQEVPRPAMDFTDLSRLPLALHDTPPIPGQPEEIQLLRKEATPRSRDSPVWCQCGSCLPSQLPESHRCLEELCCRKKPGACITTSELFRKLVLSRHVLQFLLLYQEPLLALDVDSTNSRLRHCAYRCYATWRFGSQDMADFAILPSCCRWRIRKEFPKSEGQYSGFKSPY

With `Cc1nc(-c2ccn[nH]2)c2c(n1)[C@@H]1CCC[C@H](C2)N1C(=O)c1ccc(F)c(Cl)c1Cl` [Example 4, (2,3-dichloro-4-fluorophenyl)((6R,10S)-2-methyl-4-(1H-pyrazol-5-yl)-5,6,7,8,9,10-hexahydro-6,10-epiminocycloocta[d]pyrimidin-11-yl)methanone], on P2X7 [1], the remaining activity at 10 µM is 25.4%. For the same compound, the 50% inhibitory concentration (IC50) at rat P2X7 was found to be 0.948 µM; at P2X7 [2] (Human Whole Blood IC50 (μM)) it was 1.36 µM.

Regarding `Cc1nc(-c2ccn[nH]2)c2c(n1)[C@@H]1CCC[C@H](C2)N1C(=O)c1ccc(Cl)cc1Cl` [Example 5, (2,4-dichlorophenyl)((6R,10S)-2-methyl-4-(1H-pyrazol-5-yl)-5,6,7,8,9,10-hexahydro-6,10-epiminocycloocta[d]pyrimidin-11-yl)methanone], the remaining activity at 10 µM at P2X7 [1] is 76.5%. Besides, the IC50 at P2X7 [2] (Human Whole Blood IC50 (μM)) was 2 µM.

Consider `Cc1nc(-c2ccn[nH]2)c2c(n1)[C@@H]1CCC[C@H](C2)N1C(=O)c1cccc(C(F)(F)F)c1C` [Example 6, (2-methyl-3-(trifluoromethyl)phenyl)((6R,10S)-2-methyl-4-(1H-pyrazol-5-yl)-5,6,7,8,9,10-hexahydro-6,10-epiminocycloocta[d]pyrimidin-11-yl)methanone], for which the remaining activity at 10 µM at P2X7 [1] was determined as 18.1%. Moreover, the IC50 on rat P2X7 was found to be 0.971 µM; on P2X7 [2] (Human Whole Blood IC50 (μM)), 1.13 µM.

Turning to `Cc1nc(-c2ccn[nH]2)c2c(n1)[C@@H]1CCC[C@H](C2)N1C(=O)c1ccnc(C(F)(F)F)c1Cl` [Example 7, (3-chloro-2-(trifluoromethyl)pyridin-4-yl)((6R,10S)-2-methyl-4-(1H-pyrazol-5-yl)-5,6,7,8,9,10-hexahydro-6,10-epiminocycloocta[d]pyrimidin-11-yl)methanone], the remaining activity at 10 µM at P2X7 [1] came to 20.5%. In addition, the results for the concentration for half-maximal inhibition (IC50) on rat P2X7 and on P2X7 [2] (Human Whole Blood IC50 (μM)) were 0.92 µM and 2.35 µM, respectively.

As to `Cc1nc(-c2ccn[nH]2)c2c(n1)[C@@H]1CCC[C@H](C2)N1C(=O)c1ccc(F)cc1Cl` [Example 9, (2-chloro-4-fluorophenyl)((6R,10S)-2-methyl-4-(1H-pyrazol-5-yl)-5,6,7,8,9,10-hexahydro-6,10-epiminocycloocta[d]pyrimidin-11-yl)methanone], the remaining activity at 10 µM on P2X7 [1] is 91.3%. For the same compound, the concentration for half-maximal inhibition (IC50) on rat P2X7 was over 10 µM; at P2X7 [2] (setting [3]), 2.96 µM.

On to `Cc1nc(-c2ccn[nH]2)c2c(n1)[C@@H]1CCC[C@H](C2)N1C(=O)c1ccc(Cl)cc1F` [Example 12, (4-chloro-2-fluorophenyl)((6R,10S)-2-methyl-4-(1H-pyrazol-5-yl)-5,6,7,8,9,10-hexahydro-6,10-epiminocycloocta[d]pyrimidin-11-yl)methanone], for which the remaining activity at 10 µM at P2X7 [1] came to 92.6%. For the same compound, the values for the IC50 on rat P2X7 and at P2X7 [2] (setting [3]) were over 10 µM and 6.12 µM, respectively.

For `Cc1nc(-c2ccc(F)cc2)c2c(n1)[C@@H]1CCC[C@H](C2)N1C(=O)c1cccc(C(F)(F)F)c1Cl` [Example 13, (2-chloro-3-(trifluoromethyl)phenyl)((6R,10S)-4-(4-fluorophenyl)-2-methyl-5,6,7,8,9,10-hexahydro-6,10-epiminocycloocta[d]pyrimidin-11-yl)methanone], the remaining activity at 10 µM at P2X7 [1] was found to be 22.2%. The IC50 turned out to be 0.0889 µM on rat P2X7 and 5.08 µM on P2X7 [2] (Human Whole Blood IC50 (μM)).

As for `Cc1nc(-c2ccc(F)cc2)c2c(n1)[C@@H]1CCC[C@H](C2)N1C(=O)c1ccc(Cl)cc1Cl` [Example 15, (2,4-dichlorophenyl)((6R,10S)-4-(4-fluorophenyl)-2-methyl-5,6,7,8,9,10-hexahydro-6,10-epiminocycloocta[d]pyrimidin-11-yl)methanone], the half-maximal inhibitory concentration (IC50) on P2X7 [2] (Human Whole Blood IC50 (μM)) was 5.05 µM and 13.3 µM.

Consider `Cc1nc(-c2ccc(F)cc2)c2c(n1)[C@@H]1CCC[C@H](C2)N1C(=O)c1ccc(F)cc1Cl` [Example 16, (2-chloro-4-fluorophenyl)((6R,10S)-4-(4-fluorophenyl)-2-methyl-5,6,7,8,9,10-hexahydro-6,10-epiminocycloocta[d]pyrimidin-11-yl)methanone], for which, at P2X7 [1], the remaining activity at 10 µM stood at 84.8%. Moreover, the IC50 at rat P2X7 is over 10 µM; at P2X7 [2] (Human Whole Blood IC50 (μM)), 7.38 µM.

In the case of `Cc1nc(-c2ccc(F)cc2)c2c(n1)[C@@H]1CCC[C@H](C2)N1C(=O)c1ccc(F)c(Cl)c1Cl` [Example 17, (2,3-dichloro-4-fluorophenyl)((6R,10S)-4-(4-fluorophenyl)-2-methyl-5,6,7,8,9,10-hexahydro-6,10-epiminocycloocta[d]pyrimidin-11-yl)methanone], on P2X7 [1], the remaining activity at 10 µM stood at 13.3%. Besides, the IC50 on P2X7 [2] (Human Whole Blood IC50 (μM)) was found to be 2.02 µM.

On to `Cc1nc(-c2cnn(C)c2)c2c(n1)[C@H]1CCC[C@@H](C2)N1C(=O)c1cccc(Cl)c1Cl` [Example 31, (2,3-dichlorophenyl)((6S,10R)-2-methyl-4-(1-methyl-1H-pyrazol-4-yl)-5,6,7,8,9,10-hexahydro-6,10-epiminocycloocta[d]pyrimidin-11-yl)methanone], for which the remaining activity at 10 µM at P2X7 [1] is -0.9%. In addition, the IC50 at rat P2X7 is over 10 µM; at P2X7 [2] (Human Whole Blood IC50 (μM)), 2.67 µM.

Turning to `Cc1nc(-c2cnn(C)c2)c2c(n1)[C@H]1CCC[C@@H](C2)N1C(=O)c1ccnc(C(F)(F)F)c1Cl` [Example 32, (3-chloro-2-(trifluoromethyl)pyridin-4-yl)((6S,10R)-2-methyl-4-(1-methyl-1H-pyrazol-4-yl)-5,6,7,8,9,10-hexahydro-6,10-epiminocycloocta[d]pyrimidin-11-yl)methanone], on P2X7 [1], the remaining activity at 10 µM is 4.8%. Also, the IC50 was over 10 µM at rat P2X7 and 1.58 µM on P2X7 [2] (Human Whole Blood IC50 (μM)).

As for `Cc1nc(-c2cnn(C)c2)c2c(n1)[C@H]1CCC[C@@H](C2)N1C(=O)c1ccc(F)c(Cl)c1Cl` [Example 33, (2,3-dichloro-4-fluorophenyl)((6S,10R)-2-methyl-4-(1-methyl-1H-pyrazol-4-yl)-5,6,7,8,9,10-hexahydro-6,10-epiminocycloocta[d]pyrimidin-11-yl)methanone], on P2X7 [1], the remaining activity at 10 µM came out at 1.2%. For the same compound, the IC50 at rat P2X7 is over 10 µM; at P2X7 [2] (setting [3]), 1.34 µM.

`Cc1nc(-c2ncccn2)c2c(n1)[C@H]1CCC[C@@H](C2)N1C(=O)c1cccc(C(F)(F)F)c1C` [Example 43, (2-methyl-3-(trifluoromethyl)phenyl)((6S,10R)-2-methyl-4-(pyrimidin-2-yl)-5,6,7,8,9,10-hexahydro-6,10-epiminocycloocta[d]pyrimidin-11-yl)methanone]: the remaining activity at 10 µM on P2X7 [1] turned out to be 15%. The IC50 at rat P2X7 came to 0.0417 µM.

Consider `Cc1nc(-c2cnccn2)c2c(n1)[C@H]1CCC[C@@H](C2)N1C(=O)c1cccc(Cl)c1Cl` [Example 48, (2,3-dichlorophenyl)((6S,10R)-2-methyl-4-(pyrazin-2-yl)-5,6,7,8,9,10-hexahydro-6,10-epiminocycloocta[d]pyrimidin-11-yl)methanone], for which the remaining activity at 10 µM on P2X7 [1] is -4.3%. Further, the half-maximal inhibitory concentration (IC50) at rat P2X7 turned out to be 0.0543 µM.

Regarding `Cc1nc(-c2cnccn2)c2c(n1)[C@H]1CCC[C@@H](C2)N1C(=O)c1ccnc(C(F)(F)F)c1Cl` [Example 49, (3-chloro-2-(trifluoromethyl)pyridin-4-yl)((6S,10R)-2-methyl-4-(pyrazin-2-yl)-5,6,7,8,9,10-hexahydro-6,10-epiminocycloocta[d]pyrimidin-11-yl)methanone], at P2X7 [1], the remaining activity at 10 µM is -1.9%. Also, the half-maximal inhibitory concentration (IC50) at rat P2X7 amounted to 0.139 µM.

As for `Cc1nc(-c2ccc(F)cc2)c2c(n1)[C@H]1CCC[C@@H](C2)N1C(=O)c1ccnc(C(F)(F)F)c1Cl` [Example 52, (3-chloro-2-(trifluoromethyl)pyridin-4-yl)((6S,10R)-4-(4-fluorophenyl)-2-methyl-5,6,7,8,9,10-hexahydro-6,10-epiminocycloocta[d]pyrimidin-11-yl)methanone], the remaining activity at 10 µM on P2X7 [1] is -1.2%. Besides, the 50% inhibitory concentration (IC50) on rat P2X7 was 0.0818 µM.

Consider `Cc1nc(-c2ccc(F)cc2)c2c(n1)[C@H]1CCC[C@@H](C2)N1C(=O)c1ccc(Cl)c(F)c1Cl` [Example 54, (2,4-dichloro-3-fluorophenyl)((6S,10R)-4-(4-fluorophenyl)-2-methyl-5,6,7,8,9,10-hexahydro-6,10-epiminocycloocta[d]pyrimidin-11-yl)methanone], for which, on P2X7 [1], the remaining activity at 10 µM was 9.3%. Moreover, the IC50 at rat P2X7 is 0.371 µM.

As for `Cc1nc(-c2ccccn2)c2c(n1)[C@H]1CCC[C@@H](C2)N1C(=O)c1ccnc(C(F)(F)F)c1Cl` [Example 61, (3-chloro-2-(trifluoromethyl)pyridin-4-yl)((6S,10R)-2-methyl-4-(pyridin-2-yl)-5,6,7,8,9,10-hexahydro-6,10-epiminocycloocta[d]pyrimidin-11-yl)methanone], the remaining activity at 10 µM at P2X7 [1] was found to be 0.4%. For the same compound, the IC50 at rat P2X7 is 0.046 µM.

The values above are taken from US10150766B2, “P2X7 modulators” (Jansssen Pharmaceutica NV, priority 2014, dated 2018).
